# Test results from PubChem BioAssay (NCI).
#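 Cells were grown in 96-well plates and exposed to each compound for 48 hours at five concentrations; endpoints were interpolated linearly between bracketing concentrations, or set to the highest concentration if not reached. GI50 marks 50% less growth. TGI is the concentration that stops growth completely.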
# Legend:
# Assay in all cases: inhibition of tumour cell growth, NCI panel, 48 h
# [1] = system: 786-0 renal
# [2] = system: A549 NSCLC
# [3] = system: ACHN renal
# [4] = system: BT-549 breast
# [5] = system: CAKI-1 renal
# [6] = system: CCRF-CEM leukemia
# [7] = system: COLO 205 colon
# [8] = system: DU-145 prostate
# [9] = system: EKVX NSCLC
# [10] = system: HCC-2998 colon
# [11] = system: HCT-116 colon
# [12] = system: HCT-15 colon
# [13] = system: HOP-92 NSCLC
# [14] = system: HT29 colon
# [15] = system: IGROV1 ovarian
# [16] = system: K-562 leukemia
# [17] = system: KM12 colon
# [18] = system: LOX IMVI melanoma
# [19] = system: M14 melanoma
# [20] = system: MALME-3M melanoma
# [21] = system: MCF7 breast
# [22] = system: MDA-MB-231 breast
# [23] = system: MDA-MB-435
# [24] = system: MDA-N
# [25] = system: MOLT-4 leukemia
# [26] = system: NCI-H226 lung
# [27] = system: NCI-H23 lung
# [28] = system: NCI-H460 lung
# [29] = system: NCI-H522 lung
# [30] = system: NCI/ADR-RES ovarian
# [31] = system: OVCAR-3 ovarian
# [32] = system: OVCAR-4 ovarian
# [33] = system: OVCAR-5 ovarian
# [34] = system: OVCAR-8 ovarian
# [35] = system: PC-3 prostate
# [36] = system: RXF 393 renal
# [37] = system: SF-295 CNS
# [38] = system: SF-539 CNS
# [39] = system: SK-MEL-2 melanoma
# [40] = system: SK-MEL-28 melanoma
# [41] = system: SK-MEL-5 melanoma
# [42] = system: SK-OV-3 ovarian
# [43] = system: SN12C renal
# [44] = system: SNB-19 CNS
# [45] = system: SNB-75 CNS
# [46] = system: SR leukemia
# [47] = system: SW-620 colon
# [48] = system: T-47D breast
# [49] = system: TK-10 renal
# [50] = system: U251 CNS
# [51] = system: UACC-257 melanoma
# [52] = system: UACC-62 melanoma
# [53] = system: UO-31 renal
# [54] = system: HL-60(TB) leukemia
# [55] = system: HOP-62 NSCLC
# [56] = system: HS 578T breast
# [57] = system: SF-268 CNS
# [58] = system: A498 renal
# [59] = system: RPMI-8226 leukemia
structure (smiles),measurement,setting,value
Cc1ccc(C2=C(C#N)C(=O)N3CCN=C3S2)cc1,TGI,[1],> 100 µM
same,TGI,[2],> 100 µM
same,TGI,[3],> 100 µM
same,TGI,[4],> 100 µM
same,TGI,[5],> 100 µM
same,TGI,[6],> 100 µM
same,TGI,[7],> 100 µM
same,TGI,[8],> 100 µM
same,TGI,[9],> 100 µM
same,TGI,[10],> 100 µM
same,TGI,[11],> 100 µM
same,TGI,[12],> 100 µM
same,TGI,[13],> 100 µM
same,TGI,[14],> 100 µM
same,TGI,[15],> 100 µM
same,TGI,[16],> 100 µM
same,TGI,[17],> 100 µM
same,TGI,[18],> 100 µM
same,TGI,[19],> 100 µM
same,TGI,[20],> 100 µM
same,TGI,[21],> 100 µM
same,TGI,[22],> 100 µM
same,TGI,[23],> 100 µM
same,TGI,[24],> 100 µM
same,TGI,[25],> 100 µM
same,TGI,[26],> 100 µM
same,TGI,[27],> 100 µM
same,TGI,[28],> 100 µM
same,TGI,[29],> 100 µM
same,TGI,[30],> 100 µM
same,TGI,[31],> 100 µM
same,TGI,[32],> 100 µM
same,TGI,[33],> 100 µM
same,TGI,[34],> 100 µM
same,TGI,[35],> 100 µM
same,TGI,[36],> 100 µM
same,TGI,[37],> 100 µM
same,TGI,[38],> 100 µM
same,TGI,[39],> 100 µM
same,TGI,[40],> 100 µM
same,TGI,[41],> 100 µM
same,TGI,[42],> 100 µM
same,TGI,[43],> 100 µM
same,TGI,[44],> 100 µM
same,TGI,[45],> 100 µM
same,TGI,[46],> 100 µM
same,TGI,[47],> 100 µM
same,TGI,[48],> 100 µM
same,TGI,[49],> 100 µM
same,TGI,[50],> 100 µM
same,TGI,[51],> 100 µM
same,TGI,[52],> 100 µM
same,TGI,[53],> 100 µM
COC(=O)C1(C(=O)OC)Cc2ccc(C)cc2C2=C1C(=O)c1ccccc1C2=O,TGI,[1],68.9 µM
same,TGI,[2],> 100 µM
same,TGI,[3],31.7 µM
same,TGI,[6],49.4 µM
same,TGI,[8],36.9 µM
same,TGI,[9],29.4 µM
same,TGI,[11],40.3 µM
same,TGI,[12],30.1 µM
same,TGI,[54],> 100 µM
same,TGI,[55],29 µM
same,TGI,[13],38.7 µM
same,TGI,[56],> 100 µM
same,TGI,[14],62.2 µM
same,TGI,[15],44.3 µM
same,TGI,[16],46.5 µM
same,TGI,[17],59.6 µM
same,TGI,[18],39.9 µM
same,TGI,[20],87.5 µM
same,TGI,[21],35.7 µM
same,TGI,[22],33 µM
same,TGI,[23],31.4 µM
same,TGI,[24],32 µM
same,TGI,[25],31.7 µM
same,TGI,[26],> 100 µM
same,TGI,[27],46.1 µM
same,TGI,[28],> 100 µM
same,TGI,[29],32 µM
same,TGI,[30],80.1 µM
same,TGI,[31],14.9 µM
same,TGI,[32],23.7 µM
same,TGI,[33],35.5 µM
same,TGI,[34],34.6 µM
same,TGI,[35],31.3 µM
same,TGI,[57],48.9 µM
same,TGI,[37],36.1 µM
same,TGI,[38],61.8 µM
same,TGI,[39],30.7 µM
same,TGI,[40],32.5 µM
same,TGI,[41],28.6 µM
same,TGI,[43],48.1 µM
same,TGI,[44],> 100 µM
same,TGI,[45],32.2 µM
same,TGI,[46],> 100 µM
same,TGI,[47],45.8 µM
same,TGI,[48],29.9 µM
same,TGI,[49],> 100 µM
same,TGI,[51],31.2 µM
same,TGI,[52],35.8 µM
Cc1ccc2c(c1)C(C)Cc1c(Cl)ncnc1N2C (configuration not stated),GI50,[1],3.25 µM
same,TGI,[1],17.8 µM
same,GI50,[58],2.08 µM
same,TGI,[58],4.78 µM
same,GI50,[2],4.26 µM
same,TGI,[2],> 100 µM
same,GI50,[3],3.7 µM
same,TGI,[3],> 100 µM
same,GI50,[4],3 µM
same,TGI,[4],9.74 µM
same,GI50,[5],3.22 µM
same,TGI,[5],> 100 µM
same,GI50,[6],3.82 µM
same,TGI,[6],> 100 µM
same,GI50,[7],2.11 µM
same,TGI,[7],4.62 µM
same,GI50,[8],4.21 µM
same,TGI,[8],91.9 µM
same,GI50,[9],2.33 µM
same,TGI,[9],26.3 µM
same,GI50,[10],3.54 µM
same,TGI,[10],18.3 µM
same,GI50,[11],3.01 µM
same,TGI,[11],14.2 µM
same,GI50,[12],3.08 µM
same,TGI,[12],14.1 µM
same,GI50,[54],3.07 µM
same,TGI,[54],71.8 µM
same,GI50,[55],3.74 µM
same,TGI,[55],22.2 µM
same,GI50,[13],2.92 µM
same,TGI,[13],8.5 µM
same,GI50,[56],1.89 µM
same,TGI,[56],34 µM
same,GI50,[14],3.48 µM
same,TGI,[14],47.2 µM
same,GI50,[15],3.39 µM
same,TGI,[15],36.4 µM
same,GI50,[16],3.47 µM
same,TGI,[16],> 100 µM
same,GI50,[17],2.12 µM
same,TGI,[17],7.98 µM
same,GI50,[18],1.8 µM
same,TGI,[18],3.78 µM
same,GI50,[19],2.77 µM
same,TGI,[19],22.9 µM
same,GI50,[20],1.76 µM
same,TGI,[20],6.5 µM
same,GI50,[21],2.96 µM
same,TGI,[21],11.7 µM
same,GI50,[22],2.55 µM
same,TGI,[22],6.84 µM
same,GI50,[23],2.23 µM
same,TGI,[23],5.63 µM
same,GI50,[25],3.37 µM
same,TGI,[25],> 100 µM
same,GI50,[26],2.03 µM
same,TGI,[26],5.34 µM
same,GI50,[27],3.29 µM
same,TGI,[27],22.7 µM
same,GI50,[28],3.66 µM
same,TGI,[28],91 µM
same,GI50,[29],2.67 µM
same,TGI,[29],8.03 µM
same,GI50,[30],2.73 µM
same,TGI,[30],23.1 µM
same,GI50,[31],2.26 µM
same,TGI,[31],5.4 µM
same,GI50,[32],3.06 µM
same,TGI,[32],> 100 µM
same,GI50,[33],5.05 µM
same,TGI,[33],49.3 µM
same,GI50,[34],3.77 µM
same,TGI,[34],23.8 µM
same,GI50,[35],3.62 µM
same,TGI,[35],72.1 µM
same,GI50,[59],3.56 µM
same,TGI,[59],17.2 µM
same,GI50,[36],2.87 µM
same,TGI,[36],8.62 µM
same,GI50,[57],2.5 µM
same,TGI,[57],13.8 µM
same,GI50,[37],3.12 µM
same,TGI,[37],25.2 µM
same,GI50,[38],3.85 µM
same,TGI,[38],19 µM
same,GI50,[39],3.03 µM
same,TGI,[39],8.1 µM
same,GI50,[40],0.905 µM
same,TGI,[40],48.7 µM
same,GI50,[41],1.86 µM
same,TGI,[41],3.41 µM
same,GI50,[42],3.75 µM
same,TGI,[42],31 µM
same,GI50,[43],3.64 µM
same,TGI,[43],13.7 µM
same,GI50,[44],4.89 µM
same,TGI,[44],49.7 µM
same,GI50,[45],0.394 µM
same,TGI,[45],22.5 µM
same,GI50,[46],3.53 µM
same,TGI,[46],> 100 µM
same,GI50,[47],3.2 µM
same,TGI,[47],13.3 µM
same,GI50,[48],6.9 µM
same,TGI,[48],65 µM
same,GI50,[49],4.32 µM
same,TGI,[49],34.4 µM
same,GI50,[50],4.43 µM
same,TGI,[50],67.9 µM
same,GI50,[51],4.29 µM
same,TGI,[51],46.2 µM
same,GI50,[52],3.72 µM
same,TGI,[52],21.8 µM
same,GI50,[53],3.03 µM
same,TGI,[53],45.2 µM
